Patent publication US5726325A, “Tricyclic compounds” (Kyowa Hakko Kogyo Co., Ltd., priority 1995, dated 1998)

Columns and labels:
detrusor muscle [1] = assay: Test Example 1: relaxation of guinea pig bladder strips contracted with 50 mM KCl; format: cell-based, guinea pig (male albino Hartley); conditions: Cavia porcellus; contraction induced by 50 mM KCl; concentration decreasing detrusor contraction by 50%
From the text: (§1) The activity of Compound (I) as a smooth muscle relaxant which is useful as a therapeutic agent for urinary incontinence can be observed, for example, using the following tests. In the following Test Examples 1 and 2, "IC50 " means the concentration of a test compound which induces the decrease in the contraction of detrusor muscle by 50%.
(§2) Male albino Hartley guinea pigs (350-550 g) were used as test animals. Each animal was exsanguinated to death under pentobarbital sodium anesthesia. The lower abdominal cavity was opened and its bladder was positioned. The connective tissue and the fat tissue around the bladder were removed, and the bladder was cleaned. After two pelvic nerves on the surface of the abdominal side of the bladder were dissected, the bladder was taken out on the entrance of ureter. The bladder was washed with a Krebs-Henseleit buffer [composition (mM): NaCl 118, KCl 4.7, MgSO4 1.2, KH2 PO4 1.2, CaCl2 2.5, NaHCO3 25, and D-glucose 11.1], and then put on a gauze patch soaked in the buffer in a Petri dish. The dome and the trigone of the bladder were dissected and discarded. The back of the bladder was cut vertically in the middle with scissors, and the bladder was put flat on the gauze patch. The dome tip and the side of the trigone of the bladder were dissected and discarded, and the mucosa of the bladder was removed. The back of the bladder was cut vertically to get 6 strips which are ca. 2.0 mm wide and ca. 10 mm long.
(§3) One end of each strip was fixed on a plastic supporter rod, and the other end was fixed on a clip connected to a suture thread. The supporter was fixed in 20 ml of an organ bath and the suture thread connected to the clip was fixed on a force-displacement transducer (NIHON KODEN TB-611T). The tissue was suspended in a Krebs-Henseleit buffer, and the bath solution was warmed to 37° C. and bubbled with a gas mixture of 5% CO2 and 95% O2. The pH of the solution was adjusted to about 7.4. The transducer was connected to a polygraph (NIHON KODEN AP-621G), and the change of tension was recorded on a recorder (YOKOGAWA type 3066). The polygraph was graduated by 0.5 g/cm.
After the tissue was incubated in the buffer for 15 minutes without preloading, tension was added thereto for about one hour. The preloading tension added was 1.5 g and it was relaxed to about 1 g. The tissue was washed at intervals of 15 minutes and the tension was adjusted to 1.5 g just before washing. The tension of the tissue was adjusted to be a steady state at 1 g. After this equilibrium time, 50 mM KCl (the whole content in the bath) was added, and the tissue was washed 10 minutes later. KCl was added to the tissue at intervals of 30 minutes, followed by washing 10 minutes later, and KCl was applied repeatedly until the developed tension induced by KCl becomes constant. When the tissue was confirmed to contract constantly by the application of KCl and relax to the steady state after washing, 50 mM KCl was applied again. After the tissue reached the steady state and the base line was obtained, a test compound was applied by the cumulative method (half-logarithmic incremence). The contact time at each concentration was 30 minutes. The activity of the compound was expressed as the maximum relaxation rate (%) of the tension induced by the agonist.

detrusor muscle [2] = assay: Test Example 2: relaxation of guinea pig bladder strips, rhythmical contraction induced by 15 mM KCl; format: cell-based, guinea pig (male albino Hartley); conditions: Cavia porcellus, concentration decreasing detrusor contraction by 50%
From the text: as §1, §2, §3
The effect of a smooth muscle relaxant varies with the concentration of KCl based on the difference of an action mechanism. In the following Test Example, KCl was used at a concentration different from that in Test Example 1.
A sample of the excised bladder was prepared in the same manner as in Test Example 1, and the tension of the preparation was measured. After the tension of the tissue was adjusted to be a steady state at 1 g, 15 mM KCl was applied. After the rhythmical contraction was confirmed to appear by KCl, the tissue was washed. Then, 15 mM KCl was applied again. After the rhythmical contraction took place constantly and the tissue reached the steady state, a test compound was applied by the cumulative method (half-logarithmic incremence). The contact time at each concentration was 30 minutes. The activity of the compound was expressed as the maximum relaxation rate (%) of the tension induced by the agonist.

bladder = assay: Test Example 4: micturition contraction interval in rats under partial restraint, oral; format: in vivo, rat (male SD strain); conditions: Rattus norvegicus, 1 mg/kg oral, pre-administration = 100
From the text: As a control compound, cromakalim was used.

SMILES | IC50 (detrusor muscle [1]) [µM] | IC50 (detrusor muscle [2]) [µM] | further results
CC(O)(C(=O)Nc1ccc2c(c1)C(=O)c1ccccc1CO2)C(F)(F)F (stereo not shown) [Compound 3, 2-(3,3,3-Trifluoro-2-hydroxy-2-methylpropanoylamino)-6,11-dihydrodibenz[b,e]oxepin-11-one] | 2.2 | 1.8 | 
CC(O)(C(=O)Nc1cccc2c1C(=O)c1ccccc1-2)C(F)(F)F (stereo not shown) [Compound 4, 1-(3,3,3-Trifluoro-2-hydroxy-2-methylpropanoylamino)fluoren-9-one] | 2.6 | 8.4 | 
CC(O)(C(=O)Nc1ccc2c(c1)-c1ccccc1C2=O)C(F)(F)F (stereo not shown) [Compound 6, 3-(3,3,3-Trifluoro-2-hydroxy-2-methylpropanoylamino)fluoren-9-one] | 6.1 | 11.2 | 
CC(O)(C(=O)Nc1cc2c(cc1Cl)-c1ccccc1C2=O)C(F)(F)F (stereo not shown) [Compound 11, 3-Chloro-2-(3,3,3-trifluoro-2-hydroxy-2-methyl-propanoylamino)fluoren-9-one] | 2 | 2.2 | 
CC(O)(C(=O)Nc1cc2c(cc1Br)-c1ccccc1C2=O)C(F)(F)F (stereo not shown) [Compound 12, 3-Bromo-2-(3,3,3-trifluoro-2-hydroxy-2-methylpropanoylamino)fluoren-9-one] | 3.8 | 3.2 | 
CC(O)(C(=O)Nc1ccc2c(c1)C(=O)c1cc(Br)ccc1-2)C(F)(F)F (stereo not shown) [Compound 13, 7-Bromo-2-(3,3,3-trifluoro-2-hydroxy-2-methylpropanoylamino)fluoren-9-one] | 3.5 | 48 | 
CC(O)(C(=O)Nc1cccc2c1-c1ccccc1C2=O)C(F)(F)F (stereo not shown) [Compound 14, 4-(3,3,3-Trifluoro-2-hydroxy-2-methylpropanoylamino)fluoren-9-one] | 5.7 | 2.3 | 
CC(O)(C(=O)Nc1ccc2c(c1)OCc1sccc1C2=O)C(F)(F)F (stereo not shown) [Compound 18, 7-(3,3,3-Trifluoro-2-hydroxy-2-methylpropanoylamino)-4,10-dihydrothieno[2,3-c][1]benzoxepin-4-one] | > 10 | 2.1 | 
CC(O)(C(=O)Nc1ccc2c(c1)OCc1c(F)cccc1C2=O)C(F)(F)F (stereo not shown) [Compound 21, 7-Fluoro-3-(3,3,3-trifluoro-2-hydroxy-2-methylpropanoylamino)-6,11-dihydrodibenz[b,e]oxepin-11-one] | 4.3 | > 10 | 
Cc1ccc(NC(=O)C(C)(O)C(F)(F)F)c2c1OCc1ccccc1C2=O (stereo not shown) [Compound 22] | 4.2 | > 10 | 
COc1ccc(NC(=O)C(C)(O)C(F)(F)F)c2c1OCc1ccccc1C2=O (stereo not shown) [Compound 23] | > 10 | 7.8 | 
Cc1cc2c(cc1NC(=O)C(C)(O)C(F)(F)F)OCc1ccccc1C2=O (stereo not shown) [Compound 25, 2-Methyl-3-(3,3,3-trifluoro-2-hydroxy-2-methylpropanoylamino)-6,11-dihydrodibenz[b,e]oxepin-11-one] | 2.2 | > 10 | 
Cc1ccc(NC(=O)C(C)(O)C(F)(F)F)c2c1OCc1ccsc1C2=O (stereo not shown) [Compound 26, 6-Methyl-9-(3,3,3-trifluoro-2-hydroxy-2-methylpropanoylamino)-4,10-dihydrothieno[3,2-c][1]-benzoxepin-10-one] | 7.1 | > 10 | 
COc1ccc(NC(=O)C(C)(O)C(F)(F)F)c2c1OCc1ccsc1C2=O (stereo not shown) [Compound 27, 6-Methoxy-9-(3,3,3-trifluoro-2-hydroxy-2-methylpropanoylamino)-4,10-dihydrothieno[3,2-c][1]-benzoxepin-10-one] | 4.8 | > 10 | 
C[C@@](O)(C(=O)Nc1cccc2c1C(=O)c1sccc1CO2)C(F)(F)F [Compound 34, (R)-9-(3,3,3-Trifluoro-2-hydroxy-2-methylpropanoylamino)-4,10-dihydrothieno[3,2-c][1]benzoxepin-10-one] | 1.6 | 2.2 | 
C[C@@](O)(C(=O)Nc1cccc2c1C(=O)c1ccoc1CO2)C(F)(F)F [Compound 36, (R)-5-(3,3,3-Trifluoro-2-hydroxy-2-methylpropanoylamino)-4,10-dihydrofuro[2,3-c][1]benzoxepin-4-one] | 8.3 | 1.3 | 
C[C@@](O)(C(=O)Nc1ccc2c(c1)OCc1occc1C2=O)C(F)(F)F [Compound 38, (R)-7-(3,3,3-Trifluoro-2-hydroxy-2-methylpropanoylamino)-4,10-dihydrofuro[2,3-c][1]benzoxepin-4-one] | 13.4 | 0.9 | 
C[C@](O)(C(=O)Nc1ccc2c(c1)C(=O)c1sccc1CO2)C(F)(F)F [Compound 39, (S)-8-(3,3,3-Trifluoro-2-hydroxy-2-methylpropanoylamino)-4,10-dihydrothieno[3,2-c][1]benzoxepin-10-one] | > 10 | 2.6 | 
CC(O)(C(=O)Nc1cccc2c1C(=O)c1ccccc1CS2)C(F)(F)F (stereo not shown) [Compound 40, 1-(3,3,3-Trifluoro-2-hydroxy-2-methylpropanoylamino)-6,11-dihydrodibenzo[b,e]thiepin-11-one] | 1.5 | 3.5 | 
CC(O)(C(=O)Nc1ccc2c(c1)SCc1ccccc1C2=O)C(F)(F)F (stereo not shown) [Compound 41, 3-(3,3,3-Trifluoro-2-hydroxy-2-methylpropanoylamino)-6,11-dihydrodibenzo[b,e]thiepin-11-one] | 2.1 | 1.6 | 
CC(O)(C(=O)Nc1cccc2c1C(=O)c1ccoc1CS2)C(F)(F)F (stereo not shown) [Compound 42, 5(3,3,3-Trifluoro-2-hydroxy-2-methylpropanoylamino)-4,10-dihydrofuro[2,3-c][1]benzothiepin-4-one] | 4.7 | 1.5 | 
CC(O)(C(=O)Nc1ccc2c(c1)SCc1occc1C2=O)C(F)(F)F (stereo not shown) [Compound 43, 7-(3,3,3-Trifluoro-2-hydroxy-2-methylpropanoylamino)-4,10-dihydrofuro[2,3-c][1]benzothiepin-4-one] | 3.5 | 2.1 | 
CC(O)(C(=O)Nc1ccc2c(c1)SCc1sccc1C2=O)C(F)(F)F (stereo not shown) [Compound 47, 7-(3,3,3-Trifluoro-2-hydroxy-2-methylpropanoylamino)-4,10-dihydrothieno[2,3-c][1]benzothiepin-4-one] |  | 6.1 | 
CC(O)(C(=O)Nc1cccc2c1C(=O)c1ccsc1C[S+]2[O-])C(F)(F)F (stereo not shown) [Compound 50, 9-Oxo-5-(3,3,3-trifluoro-2-hydroxy-2-methylpropanoylamino)-4,10-dihydrothieno[2,3-c][1]benzothiepin-4-one] |  | 6.1 | 
CC(O)(C(=O)Nc1ccc2c(c1)[S+]([O-])Cc1sccc1C2=O)C(F)(F)F (stereo not shown) [Compound 51, 9-Oxo-7-(3,3,3-trifluoro-2-hydroxy-2-methylpropanoylamino)-4,10-dihydrothieno[2,3-c][1]benzothiepin-4-one] |  | 5.7 | 
CC1(C)Oc2ccc(C#N)cc2C(N2CCCC2=O)C1O (stereo not shown) [Cromakalim, cromakalim, reference compound] |  |  | response vs control in vivo at 1 mg/kg (bladder; 1 hr): 128%; response vs control in vivo at 1 mg/kg (bladder; 2 hr): 133%; response vs control in vivo at 1 mg/kg (bladder; 3 hr): 142%; response vs control in vivo at 1 mg/kg (bladder; 4 hr): 133%; response vs control in vivo at 1 mg/kg (bladder; 5 hr): 133%
